Experimental data published in patent publication US20260000763A1, “Methods of Manufacturing Therapeutic Cells” (The Board of Trustees of the Leland Stanford Junior …, priority 2022, published 2026).

Tests used:
Nalm6 leukemia cells = test: Nalm6 leukemia in NSG mice treated with CD19.28 CAR T cells (in vivo stress test); settings: 0.2×10^6 CD19.28 CAR T cells IV day 3, manufactured in inosine vs regular media
Method: (§1) A: NSG mice were injected IV with 1×10^6 Nalm6 leukemia cells at day 0, and then 0.2×10^6 CD19.28 CAR T cells, generated in regular or inosine-supplemented media were given IV on day 3. Tumor progression was monitored using bioluminescent imaging. Scales are normalized for all time points. Data are mean+s.e.m. of n=5 mice per group. […] B: NSG mice were injected IV with 1×10^6 Nalm6-GD2+ leukemia cells at day 0, and then 2×10^6 HA CAR T cells, generated in regular or inosine-containing media were given IV on day 3. Tumor progression was monitored using bioluminescent imaging. Scales are normalized for all time points. Data are mean+s.e.m. of n=5 mice per group. […] C: Overall survival. N=5 mice per group. Survival curves were compared using the log-rank Mantel-Cox test. D: NSG mice were injected intramuscular with 1×10^6 143b tumor cells. 4 days later the mice were injected with 1×10^7 Her2, Her2 grown in INO+ media or mock T cells IV. Tumor growth was monitored by caliper measurements. […] N=3-5 mice per group. Survival curves were compared using the log-rank Mantel-Cox test.
(§2) In this example, the in vivo anti-tumor potency of CAR T cells manufactured in the presence or absence of inosine was assessed. […] Three days post tumor injection, mice were evaluated and normalized for engraftment using bioluminescent imaging. […]

HA-CAR T cells [1] = test system: HA-CAR T cells
Source text: 9D: Levels of expression of indicated purinergic pathway gene transcripts from bulk RNA samples. Data are mean+/−s.e.m. from n=3 donors. P values determined by paired two-tailed t-tests. *, P<0.05; **, P<0.01; ***, P<0.001; **** P<0.0001. […] Histograms of representative donor (Left) and pooled data from n=8 donors shown (Right). P values determined by paired two-tailed t-tests. *, P<0.05; **, P<0.01; ***, P<0.001; ****, P<0.0001. 9F: UMAP plots of day 14 CD8+ (top) and CD4+ (bottom) HA-or HA-INO-CAR T cells analyzed using CyTOF. 9,000 or maximum of CD4+ CAR T cells from each condition from n=4 donors were organized by their combined expression of 5 exhaustion markers. Graphs represent median expression of indicated markers. P values determined by paired two-tailed t-tests. *, P<0.05; **, P<0.01; ***, P<0.001; ****, P<0.0001. 9G: Histograms showing GD2 antigen expressed by Nalm6-GD2 and 143b tumor lines with corresponding number of molecules per cell. 9H: Co-cultures of HA, HA-ADA-O/E-or HA grown in INO stimulated with Nalm6-GD2 (1:8 E: T) at day 14 post-activation. Tumor GFP fluorescence intensity was normalized to the first time point (duplicate or triplicate wells). Representative donor of n=2 donor shown. P values determined by two-way ANOVA with Dunnett's multiple comparisons test. *, P<0.05; **, P<0.01; ***, P<0.001; ****, P<0.0001. […] Error bars represent mean+SD of triplicate wells from one representative donor of n=1-2 donors. P values determined by unpaired two-tailed t-tests. *, P<0.05; **, P<0.01; ***, P<0.001; ****, P<0.0001. 9J: IL-2 release after 24h of CD19.4-1BBz-CAR T cells stimulated with Nalm6 tumor line alone or in co-culture with HA-or HA-INO-CAR T cells at 1:1:1 ratio. Data are mean+SD from triplicate wells. N=1 donor. *, P<0.05; **, P<0.01; *** P<0.001; ****, P<0.0001. […] Data polled from n=5 donors from independent experiments. P values determined by paired two-tailed t-tests *, P<0.05; **, P<0.01; ***, P<0.001; ****, P<0.0001. […] Tumor GFP fluorescence intensity was normalized to the first time point (duplicate or triplicate wells). Representative donor of n=3 donor shown. P values determined by two-way ANOVA with Dunnett's multiple comparisons test. *, P<0.05; **, P<0.01; ***, P<0.001; ****, P<0.0001. 9N: Co-cultures of CD19, or CD19-CAR T cells grown in INO media starting from indicated days post-activation and Nalm6-GD2 (1:10 E: T) starting at day 15 post-activation. Tumor GFP fluorescence intensity was normalized to the first time point (duplicate or triplicate wells). Representative donor of n=2 donor shown. P values determined by two-way ANOVA with Dunnett's multiple comparisons test. *, P<0.05; **, P<0.01; ***, P<0.001; ****, P<0.0001. […] Data are mean±s.e.m. of n=3-5 donors. P values determined by paired two-tailed t-tests. *, P<0.05; **, P<0.01; ***, P<0.001; ****, P<0.0001.

HA-CAR T cells [2] = test: Improvement index overlapped with proliferation to set a therapeutic window for inosine; type: cell-based, human; settings: 11 mM glucose plus 0.5-11 mM inosine tested; improvement index vs proliferation
Method: FIG. 7F: Improvement index calculation scheme.
FIG. 7G: Scatter plot showing correlation between improvement index (y-axis-in black) or proliferation (y-axis-in red) and inosine concentration (x-axis). […] N=2-6 donors from independent experiments.
To establish a therapeutic window for inosine addition, an improvement index was calculated. The index represents a sum of fold change in frequency of CCR7+CD8+ and CD62L+CD8+ at the base line and fold change in IL-2 and IFNγ secretion after 24 hours stimulation with Nalm6-GD2 tumor line by HA-CAR T cells manufactured in 11 mM of glucose and various concentrations of inosine (0.5-11 mM) as compared to control (FIG. 7F).

[3] = test system: HA-CAR T cells and CD19.28z-CAR T cells; test: Cell cycle state by BrdU and 7AAD staining; type: cell-based; settings: day 10, vs control cells, presence or absence of glucose
Source text: 9A: Schematic of the experimental design. […] Graphs represent median expression of indicated markers. […] Representative donor of n=2 donor shown. […] Data are mean+SD from triplicate wells. […] 9K: Schematic of the experimental design. […] Representative donor of n=3 donor shown. […] Representative donor of n=2 donor shown. […] (Top) Dot plots of representative donor shown. […] Representative donor of n=3 donor shown. […] N=2-4 donors from independent experiments. […] N=2-6 donors from independent experiments. […] N=2-4 donors from independent experiments. […] (Top) representative dot plots shown.
Further tested was whether similar functional enhancement occurred with INO exposure in the presence or absence of glucose by serially challenging HA-INO-CAR cells grown in the presence or absence of glucose with Nalm6-GD2. […] Decreased proliferation can be associated with induction of stemness or cells entering quiescence state.

CD8+ HA-CAR T cells = test: ATACseq chromatin accessibility of CD8+ HA- and HA-INO-CAR T cells (ChromVAR, HOMER); type: cell-based, human
Source text: Concatenated samples from n=3 donors. […] (Left) Dot plots of representative donor shown.

GD2-CAR T cells = GD2-CAR T cells manufactured in TexMACS with increasing concentrations of INO; type: cell-based
Method: FIG. 13A-13H: Clinical scale manufacturing of clinical grade GD2-CAR T cells using media containing inosine, improves CAR product quality. A: Schematic of large-scale manufacturing of GD2.bbz-CAR+ T cells in a semi-closed G-Rex system in glucose-or inosine-containing media. 7 days post-activation, transduction efficiency, percentage of viable cells, and CD4/CD8 ratio of GD2+ cells were assessed by flow cytometry. […] B: Expansion of total viable T cells manufactured in control (black) vs. inosine (green)-containing media and (Right) corresponding number of CAR+ cells at day 7. […] C: IL-2 and IFNg secretion by CAR T cells stimulated for 24 hrs with 143b, mg63.3 or Nalm6-GD2 tumor lines. […] D: NSG mice were injected with 1×10^6 Nalm6 leukemia cells. On day 3 post-tumor injection, 2×10^6 of mock or GD2.bbz-CAR T cells manufactured in the presence of inosine or in regular media were transferred intravenously. Tumor growth was monitored by bioluminescent imaging. […] P values determined at day 43 by using Mann-Whitney test. […] E: Concentration of CD45+ T cells detected in blood of mice at D33 post-CAR T cell injection. […] F: Schematic of the experimental design. G: GD2.bbz-CAR T cells grown in media containing indicated inosine concentration between day 3 and day 10 post-activation and stimulated with 143b tumor. IL-2 and IFNg secretion after 24 hrs of co-culture was measured. Data are mean±s.d. of duplicate or triplicate wells. Representative of n=3 donors shown. […] Reprograming is due to an increase in glutaminolysis and polyamine synthesis and downregulation of CD73, FOXP3, A2aR and c-AMP response transcription factors.
Finally, to test compatibility of adding INO to GMP-grade culture media that contains glucose, GD2-CAR T cells were manufactured in TexMACS™ with increasing concentrations of INO (FIG. 13F).

[4] = test system: HA-CAR T cells and CD19-CAR T cells; test: Seahorse analysis of mitochondrial fitness; cell size; type: cell-based
Method: To measure mitochondrial fitness in CAR T cells cultured in the presence or absence of INO, Seahorse analysis was performed.

[5] = test system: Nalm6-GD2+ leukemia cells; test: Nalm6-GD2+ leukemia in NSG mice treated with HA CAR T cells; type: in vivo; settings: 2×10^6 HA CAR T cells IV day 3, expanded in inosine vs regular media
Method: as §1, §2

In the case of `O=c1[nH]cnc2c1ncn2[C@@H]1O[C@H](CO)[C@@H](O)[C@H]1O` [inosine, Inosine], the “tumor growth (bioluminescent imaging)” value (Nalm6 leukemia cells) is reported as “significantly delayed tumor growth”, the “expression of ornithine decarboxylase (ODC), spermidine synthase and elF5A” value (HA-CAR T cells [1]; HA vs HA-INO) is reported as “increased expression” and the “genes associated with TCR signaling” value (HA-CAR T cells [1]; HA vs HA-INO) is reported as “diminished expression”. For the same molecule, the “genes associated with glutaminolysis and polyamine synthesis” value (HA-CAR T cells [1]; HA vs HA-INO, day 14) was “increased expression”, the “genes associated with glycolysis and glucose driven metabolism (PFKP, ALDOA, GAPDH, PGK, ENO1)” value (HA-CAR T cells [1]; HA vs HA-INO, day 14) was “downregulation” and the “variance in principal component analysis attributed to INO exposure” value (HA-CAR T cells [1]; bulk RNA-seq PCA) was 41.3%. For the same molecule, the “inosine concentration range improving phenotype and function without complete inhibition of expansion (therapeutic window)” value (HA-CAR T cells [2]) was 2.75 to 11 mM, the cell cycle distribution [3] was “higher proportion of cells in S/G2+M phase” and the “accessibility of RUNT, IRF and RHD family TF binding motifs” value (CD8+ HA-CAR T cells; ChromVAR and HOMER) was “increased accessibility”. For the same molecule, the “genomic regions with changed chromatin accessibility” value (CD8+ HA-CAR T cells; D14 CD8+ cells, three individuals) was “more than 10,000 genomic regions”, the PC1 variance (CD8+ HA-CAR T cells; PCA of ATACseq) was 57% and the “antigen induced cytokine production” value (GD2-CAR T cells; INO 11 mM vs lower concentrations) was “trend toward greater antigen induced cytokine production”. For the same molecule, the cell proliferation (GD2-CAR T cells; TexMACS (contains glucose) with increasing INO) was “significantly decreased cell proliferation”, the “CAR T cell viability” value (GD2-CAR T cells; TexMACS with increasing INO) was “no changes” and the “secretion of IL-2 and IFNg” value (GD2-CAR T cells; challenged with 143b cells, 24 hrs, INO day 3 to day 10) was “dose-dependent increase”. The CD62L expression (GD2-CAR T cells; vs control cells) was “increased CD62L expression”, the “metabolic profile of non-tonic signaling CD19-CAR T cells” value ([4]; Seahorse, day 11) was “memory-like metabolic profile” and the “basal oxygen consumption rate (Basal OCR)” value ([4]; day 11, control vs INO cultured cells) was “did not differ”. For the same molecule, the “size of the cells” value ([4]; day 13 post-activation) was “increased size”, the survival [5] was “improved” and the tumor control [5] was “improved”.
